Assay results published in ChEMBL document CHEMBL1201862, “PubChem BioAssay data set” (2004).
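Grown in 96-well plates, cells were treated for 48 hours with each compound at five concentrations. Insufficient inhibition: endpoint recorded as highest concentration tested. GI50: concentration for 50% inhibition of growth.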 The source made the active and inactive calls. Rule as the data show it: active = GI50 up to about 1.1 µM and inactive = higher.

Columns and labels:
Experiment in all cases: NCI anticancer screen, dose series, 48 h
786-0 = test system: 786-0
A498 = test system: A498
A549 = test system: A549
ACHN = test system: ACHN
CAKI-1 = test system: CAKI-1
CCRF-CEM = test system: CCRF-CEM
COLO 205 = test system: COLO 205
DLD-1 = test system: DLD-1
DMS-114 = test system: DMS-114
DMS-273 = test system: DMS-273
EKVX = test system: EKVX
HCC 2998 = test system: HCC 2998
HCT-116 = test system: HCT-116
HCT-15 = test system: HCT-15
HL-60 = test system: HL-60
HOP-18 = test system: HOP-18
HOP-62 = test system: HOP-62
HOP-92 = test system: HOP-92
HT-29 = test system: HT-29
IGROV-1 = test system: IGROV-1
K562 = test system: K562
KM-20L2 = test system: KM-20L2
KM12 = test system: KM12
LOX IMVI = test system: LOX IMVI
LXFL 529 = test system: LXFL 529
M19-MEL = test system: M19-MEL
MOLT-4 = test system: MOLT-4
Malme-3M = test system: Malme-3M
NCI-H226 = test system: NCI-H226
NCI-H23 = test system: NCI-H23
NCI-H460 = test system: NCI-H460
NCI-H522 = test system: NCI-H522
OVCAR-3 = test system: OVCAR-3
OVCAR-4 = test system: OVCAR-4
OVCAR-5 = test system: OVCAR-5
OVCAR-8 = test system: OVCAR-8
RPMI-8226 = test system: RPMI-8226
RXF 631 = test system: RXF 631
SF-268 = test system: SF-268
SF-295 = test system: SF-295
SF-539 = test system: SF-539
SK-MEL-28 = test system: SK-MEL-28
SK-MEL-2 = test system: SK-MEL-2
SK-MEL-5 = test system: SK-MEL-5
SK-OV-3 = test system: SK-OV-3
SN12C = test system: SN12C
SNB-19 = test system: SNB-19
SNB-75 = test system: SNB-75
SNB-78 = test system: SNB-78
SW-620 = test system: SW-620
TK-10 = test system: TK-10
U-251 = test system: U-251
UACC-257 = test system: UACC-257
UACC-62 = test system: UACC-62
UO-31 = test system: UO-31
XF498 = test system: XF498
M14 = test system: M14
RXF 393 = test system: RXF 393
SR = test system: SR

Measured: GI50

CN(C)c1nnnn1-c1c(N)n(C)c(=O)n(C)c1=O
> 100 µM: HCT-15
inactive: 786-0 > 100 µM | A498 > 100 µM | A549 > 100 µM | ACHN > 100 µM | CAKI-1 > 100 µM | CCRF-CEM > 100 µM | COLO 205 > 100 µM | DLD-1 > 100 µM | DMS-114 > 100 µM | DMS-273 > 100 µM | EKVX > 100 µM | HCC 2998 > 100 µM | HCT-116 > 100 µM | HL-60 > 100 µM | HOP-18 > 100 µM | HOP-62 > 100 µM | HOP-92 > 100 µM | HT-29 > 100 µM | IGROV-1 > 100 µM | K562 > 100 µM | KM-20L2 > 100 µM | KM12 > 100 µM | LOX IMVI > 100 µM | LXFL 529 > 100 µM | M19-MEL > 100 µM | MOLT-4 > 100 µM | Malme-3M > 100 µM | NCI-H226 > 100 µM | NCI-H23 > 100 µM | NCI-H460 > 100 µM | NCI-H522 > 100 µM | OVCAR-3 > 100 µM | OVCAR-4 > 100 µM | OVCAR-5 > 100 µM | OVCAR-8 > 100 µM | RPMI-8226 > 100 µM | RXF 631 > 100 µM | SF-268 > 100 µM | SF-295 > 100 µM | SF-539 > 100 µM | SK-MEL-28 > 100 µM | SK-MEL-2 > 100 µM | SK-MEL-5 > 100 µM | SK-OV-3 > 100 µM | SN12C > 100 µM | SNB-19 > 100 µM | SNB-75 > 100 µM | SNB-78 > 100 µM | SW-620 > 100 µM | TK-10 > 100 µM | U-251 > 100 µM | UACC-257 > 100 µM | UACC-62 > 100 µM | UO-31 > 100 µM | XF498 > 100 µM

CCOC(=N)/C(=C1\OC(=N)C(c2ccc(Cl)cc2)=C1O)c1ccc(Cl)cc1
inactive: 786-0 17.8 µM | A498 17.8 µM | A549 23.4 µM | ACHN 21.3 µM | CAKI-1 23.2 µM | CCRF-CEM 18.2 µM | COLO 205 16.6 µM | DLD-1 15.2 µM | DMS-114 17.3 µM | DMS-273 14.7 µM | EKVX 18.1 µM | HCC 2998 18.1 µM | HCT-116 16.9 µM | HL-60 17.3 µM | HOP-18 19 µM | HOP-62 22.5 µM | HOP-92 18.5 µM | HT-29 23.2 µM | IGROV-1 28.9 µM | K562 19.8 µM | KM-20L2 18.5 µM | KM12 18.4 µM | LOX IMVI 13.9 µM | LXFL 529 14.7 µM | M14 17.4 µM | M19-MEL 16.9 µM | MOLT-4 17.9 µM | Malme-3M 14.3 µM | NCI-H226 20.5 µM | NCI-H23 15.3 µM | NCI-H460 21.6 µM | NCI-H522 15 µM | OVCAR-3 18 µM | OVCAR-4 11.8 µM | OVCAR-5 19.4 µM | OVCAR-8 15.4 µM | RPMI-8226 14.8 µM | RXF 393 13.8 µM | RXF 631 25.2 µM | SF-268 14.5 µM | SF-295 25.3 µM | SF-539 16.5 µM | SK-MEL-28 16 µM | SK-OV-3 36.5 µM | SN12C 14.8 µM | SNB-19 22.7 µM | SNB-75 18.8 µM | SNB-78 25.6 µM | SR 16.7 µM | SW-620 17.6 µM | TK-10 28.1 µM | U-251 16.8 µM | UACC-257 17.2 µM | UACC-62 15.5 µM | UO-31 17.5 µM | XF498 11.4 µM

CCOC(=O)[C@H]1Nc2ccc(Cl)cc2[C@H]2c3ccccc3O[C@H]21
inactive: 786-0 > 100 µM | A549 79.4 µM | ACHN > 100 µM | CAKI-1 > 100 µM | COLO 205 > 100 µM | DLD-1 63 µM | DMS-114 > 100 µM | DMS-273 30.1 µM | EKVX > 100 µM | HCC 2998 > 100 µM | HCT-116 > 100 µM | HOP-18 > 100 µM | HOP-62 > 100 µM | HT-29 99.3 µM | IGROV-1 > 100 µM | K562 56.5 µM | KM-20L2 > 100 µM | KM12 93.5 µM | LOX IMVI > 100 µM | LXFL 529 32.1 µM | M14 41.2 µM | M19-MEL > 100 µM | MOLT-4 > 100 µM | NCI-H226 > 100 µM | NCI-H23 > 10 µM | NCI-H460 > 100 µM | NCI-H522 > 100 µM | OVCAR-3 80.4 µM | OVCAR-4 54.1 µM | OVCAR-5 > 100 µM | OVCAR-8 > 100 µM | RPMI-8226 45.5 µM | RXF 393 > 100 µM | RXF 631 > 100 µM | SF-268 > 100 µM | SF-295 72.1 µM | SF-539 > 100 µM | SK-MEL-28 35.2 µM | SK-MEL-2 > 100 µM | SK-MEL-5 64.7 µM | SN12C > 100 µM | SNB-19 > 100 µM | SNB-75 47.4 µM | SNB-78 > 100 µM | SR 94.8 µM | SW-620 > 100 µM | TK-10 39.8 µM | U-251 > 100 µM | UACC-257 36.1 µM | UACC-62 41.8 µM | UO-31 > 100 µM | XF498 > 100 µM
16.4 µM: HCT-15

CN(C)c1ccc(/C=C(\C#N)C(=O)c2ccccc2)cc1Br
inactive: 786-0 > 100 µM | A549 > 100 µM | ACHN > 100 µM | CAKI-1 > 100 µM | CCRF-CEM 35.6 µM | COLO 205 > 100 µM | DLD-1 67.5 µM | DMS-114 > 100 µM | DMS-273 > 100 µM | EKVX > 100 µM | HCC 2998 > 100 µM | HCT-116 > 100 µM | HL-60 25.7 µM | HOP-18 > 100 µM | HOP-62 20.8 µM | HOP-92 > 100 µM | HT-29 > 100 µM | K562 59.8 µM | KM-20L2 > 100 µM | KM12 > 100 µM | LOX IMVI 25.5 µM | LXFL 529 > 100 µM | M14 > 100 µM | MOLT-4 36.2 µM | Malme-3M > 100 µM | NCI-H226 39.3 µM | NCI-H23 > 100 µM | NCI-H460 > 100 µM | NCI-H522 > 100 µM | OVCAR-3 > 100 µM | OVCAR-4 > 100 µM | OVCAR-5 > 100 µM | OVCAR-8 > 100 µM | RPMI-8226 25.8 µM | RXF 393 14.6 µM | RXF 631 > 100 µM | SF-268 > 100 µM | SF-295 > 100 µM | SF-539 > 100 µM | SK-MEL-28 46.5 µM | SK-MEL-2 > 100 µM | SK-MEL-5 96.2 µM | SK-OV-3 > 100 µM | SN12C > 100 µM | SNB-19 > 100 µM | SNB-75 41.8 µM | SNB-78 > 100 µM | SR 38.5 µM | SW-620 66.1 µM | TK-10 > 100 µM | U-251 > 100 µM | UACC-257 > 100 µM | UACC-62 51.3 µM | UO-31 > 100 µM | XF498 > 100 µM

Cn1c(=O)c(/N=N/c2c(=O)n(C)c(=O)n3c2[nH]c2ccccc23)c2[nH]c3ccccc3n2c1=O
inactive: 786-0 41.9 µM | A498 90.4 µM | A549 92.7 µM | ACHN 80.9 µM | CAKI-1 > 100 µM | CCRF-CEM 8.63 µM | COLO 205 > 100 µM | DLD-1 > 100 µM | DMS-114 63 µM | DMS-273 > 100 µM | EKVX > 100 µM | HCC 2998 > 100 µM | HCT-116 6.95 µM | HL-60 > 100 µM | HOP-18 24 µM | HOP-62 57.1 µM | HOP-92 94.2 µM | HT-29 > 100 µM | IGROV-1 86.7 µM | K562 > 100 µM | KM-20L2 > 100 µM | KM12 > 100 µM | LOX IMVI 6.24 µM | LXFL 529 20 µM | M14 > 100 µM | M19-MEL > 100 µM | Malme-3M > 100 µM | NCI-H226 36.3 µM | NCI-H23 71.1 µM | NCI-H460 9.89 µM | NCI-H522 66.5 µM | OVCAR-3 > 100 µM | OVCAR-4 > 100 µM | OVCAR-5 > 100 µM | OVCAR-8 57.9 µM | RPMI-8226 > 100 µM | RXF 393 > 100 µM | RXF 631 85.7 µM | SF-268 46.2 µM | SF-295 12.4 µM | SF-539 57.4 µM | SK-MEL-28 > 100 µM | SK-MEL-2 > 100 µM | SK-MEL-5 > 100 µM | SK-OV-3 > 100 µM | SNB-19 13.2 µM | SNB-75 29.1 µM | SNB-78 > 100 µM | SW-620 > 100 µM | TK-10 50.8 µM | U-251 22.4 µM | UACC-257 54.2 µM | UACC-62 > 100 µM | UO-31 87.3 µM | XF498 > 100 µM
48.5 µM: HCT-15
